Drawing on patent US8853230B2, “Inhibitors of JAK” (Portola Pharmaceuticals, Inc., priority 2009, dated 2014), this text covers IC50 for 20 molecules.

Holding throughout (type): biochemical
One experiment addresses T1, TYK2 (Homo sapiens, UniProt P29597).
T1 construct: 5 μl of catalytic domain recombinant Kinase enzyme+Tyr peptide substrate (Invitrogen, Calif.); purchased Invitrogen
T1 sequence (P29597 897-1176 limits assumed): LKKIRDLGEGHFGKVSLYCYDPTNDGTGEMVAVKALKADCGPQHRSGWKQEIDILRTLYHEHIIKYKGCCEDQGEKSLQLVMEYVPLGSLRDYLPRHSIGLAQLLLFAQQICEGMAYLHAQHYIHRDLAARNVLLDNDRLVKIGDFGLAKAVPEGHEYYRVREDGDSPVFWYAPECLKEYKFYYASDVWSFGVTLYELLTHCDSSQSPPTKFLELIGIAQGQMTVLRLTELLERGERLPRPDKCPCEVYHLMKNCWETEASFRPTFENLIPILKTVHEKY
Nature of the experiment: Z'-LYTE kinase assay, TYK2 tyrosine phosphorylation activity. On the procedure: (§1) JAK and TYK2 tyrosine phosphorylation activity is measured using the Z′-LYTE™ Technology developed by Invitrogen Corporation (Carlsbad, Calif.). For JAK1, JAK2 and JAK3 the Z′-LYTE™ Kinase Assay Kit-Tyr6 Peptide (part number PV4122) was used. For TYK2 the Z′-LYTE™ Kinase Assay Kit-Tyr6 Peptide (part number PV3192) was used. The Z′-LYTE™ biochemical assay employs a fluorescence resonance energy transfer (FRET) coupled-enzyme format and is based on the differential sensitivity of phosphorylated and non-phosphorylated peptides to proteolitic cleavage. The assay uses a synthetic peptide substrate that is labelled with a donor fluorophore (coumarin) and an acceptor fluorophore (fluorescein) that make up a FRET pair. In the primary reaction (the Kinase Reaction), the kinase transfers the γ-phosphate of ATP to a single tyrosine residue on the substrate, while the presence of a kinase inhibitor in the primary reaction suppresses phosphorylation. In the secondary reaction (the Development Reaction), a site-specific protease (the Development Reagent) is added. The development buffer quenches the Kinase Reaction, while the protease recognizes and cleaves non-phosphorylated Z′-LYTE™ peptide substrate. Cleavage disrupts FRET between the donor and acceptor fluorophores on the non-phosphoryleted substrate, while uncleaved, phosphorylated substrate maintains FRET.
(§2) To test the ability of candidate molecules to inhibit JAK tyrosine phosphorylation activity, molecules are reconstituted in 100% DMSO and serially diluted 1:10 in polypropylene v-bottom microtiter plates. The candidate molecules are then diluted 1:25 into kinase buffer and 2.5 μl transferred into duplicate wells of a 384 well low volume black microtiter assay plate (Corning, USA). The final DMSO concentration in the assay is 1%. The kinase reaction contains 2.5 μl of a candidate molecule, 5 μl of catalytic domain recombinant Kinase enzyme+Tyr peptide substrate (Invitrogen, Calif.) and 2.5 μl ATP (Invitrogen, Calif.). The kinase reaction is allowed to procede for 1 hour at room temperature. The protease reaction is initiated by the addition of 5 μl Development Reagent (Invitrogen, Calif.). After 1 hour incubation at room temperature the fluorescence is measured using a FlexStation plate reader (Molecular Devices, Sunnyvale, Calif.). The reader settings used are as follows: Fluorescence mode, endpoint, top read, excitation 400 nm, emission 445 nm and 520 nm, Auto Cutoff 435 nm and 515 nm, PMT sensitivity high, 6 reads per well. Inhibition of JAK activity is calculated as the percent phosphorylation of substrate in the presence of inhibitor compared to the percent phosphorylation of substrate in the absence of inhibitor. IC50's were derived using Xlfit 4.3 (IDBS, UK), 4 parameter logistic model 205: Y=(A+((B−A)/(1+((C/x)^D)))).

Another experiment has as its target T2, JAK3 (Homo sapiens, UniProt P52333).
T2 construct: 5 μl of catalytic domain recombinant Kinase enzyme+Tyr peptide substrate (Invitrogen, Calif.); purchased Invitrogen
As to the kind of experiment: Z'-LYTE kinase assay, JAK3 tyrosine phosphorylation activity. The procedure:
as §1, §2

The target of a further experiment is T3, JAK1 (Homo sapiens, UniProt P23458).
T3 construct: 5 μl of catalytic domain recombinant Kinase enzyme+Tyr peptide substrate (Invitrogen, Calif.); purchased Invitrogen
As to the kind of experiment: Z'-LYTE kinase assay, JAK1 tyrosine phosphorylation activity. To be noted: read-out: JAK 1 IC50. On the procedure: as §1, §2

In a further experiment the target is T4, JAK2 (Homo sapiens, UniProt O60674).
T4 construct: 5 μl of catalytic domain recombinant Kinase enzyme+Tyr peptide substrate (Invitrogen, Calif.); purchased Invitrogen
Nature of the experiment: Z'-LYTE kinase assay, JAK2 tyrosine phosphorylation activity. The procedure:
as §1, §2

T4 sequence (O60674 849-1124 limits assumed): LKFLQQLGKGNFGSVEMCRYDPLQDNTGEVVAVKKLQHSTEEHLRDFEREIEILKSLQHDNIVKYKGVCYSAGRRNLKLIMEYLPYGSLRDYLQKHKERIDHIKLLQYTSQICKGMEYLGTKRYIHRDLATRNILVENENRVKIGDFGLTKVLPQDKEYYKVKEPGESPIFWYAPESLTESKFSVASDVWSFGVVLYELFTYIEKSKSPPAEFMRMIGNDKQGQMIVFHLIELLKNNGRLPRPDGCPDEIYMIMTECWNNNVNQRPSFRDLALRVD
T3 sequence (P23458 875-1153 limits assumed): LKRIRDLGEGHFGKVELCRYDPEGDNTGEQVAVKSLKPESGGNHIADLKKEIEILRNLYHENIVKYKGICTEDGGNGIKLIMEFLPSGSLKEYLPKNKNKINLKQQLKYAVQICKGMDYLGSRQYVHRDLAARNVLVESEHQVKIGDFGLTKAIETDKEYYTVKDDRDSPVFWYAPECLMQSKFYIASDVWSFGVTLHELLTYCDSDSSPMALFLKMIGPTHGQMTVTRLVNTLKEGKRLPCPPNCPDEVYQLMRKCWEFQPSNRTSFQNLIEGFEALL
T2 sequence (P52333 822-1111 limits assumed): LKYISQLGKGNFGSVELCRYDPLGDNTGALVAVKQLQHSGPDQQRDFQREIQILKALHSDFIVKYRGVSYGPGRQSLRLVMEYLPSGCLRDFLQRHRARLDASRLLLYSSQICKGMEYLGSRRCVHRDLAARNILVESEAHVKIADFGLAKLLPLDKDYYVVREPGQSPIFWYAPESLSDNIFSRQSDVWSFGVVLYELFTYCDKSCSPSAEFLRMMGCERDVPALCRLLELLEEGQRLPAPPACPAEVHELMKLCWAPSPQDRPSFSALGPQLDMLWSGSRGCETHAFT

The IC50 is the concentration that inhibits the measured activity by half. Regarding `C[C@@H](Nc1nc(Nc2cccc(NC(=O)N3CCOCC3)c2)ncc1C(N)=O)c1ccccc1` [Example 255, (R)—N-(3-(5-carbamoyl-4-(1-phenylethylamino)pyrimidin-2-ylamino)phenyl)morpholine-4-carboxamide], the IC50 is 10 to 100 nM against TYK2, below 1 nM on JAK3, 10 to 100 nM on JAK1 and 1 to 10 nM against JAK2.

Take `CC(=O)Nc1cccc(Nc2cc(NCC3CCC3)c(C(N)=O)cn2)c1` [Example 331, 6-(3-acetamidophenylamino)-4-(cyclobutylmethylamino)nicotinamide]: the IC50 against TYK2 was 10 to 100 nM; against JAK3 it was 10 to 100 nM; on JAK1 it was 100 to 1000 nM; against JAK2 it was 100 to 1000 nM.

As for `CC(=O)Nc1cc(Nc2ncc(C(N)=O)c(Nc3cccc4nsnc34)n2)ccc1OCCN1CCCC1` [Example 227, 2-(3-acetamido-4-(2-(pyrrolidin-1-yl)ethoxy)phenylamino)-4-(benzo[c][1,2,5]thiadiazo-4-ylamino)pyrimidine-5-carboxamide], the IC50 was 10 to 100 nM against TYK2, 1 to 10 nM against JAK3, 10 to 100 nM on JAK1 and 1 to 10 nM against JAK2.

For the molecule `CC(=O)Nc1cccc(Nc2cc(N[C@H](C)c3ccccc3)c(C(N)=O)cn2)c1` [Example 322, (R)-6-(3-acetamidophenylamino)-4-(1-phenylethylamino)nicotinamide], the IC50 against TYK2 lay within 100 to 1000 nM; against JAK3 it was 10 to 100 nM; on JAK1, 100 to 1000 nM; on JAK2 it was 100 to 1000 nM.

For the molecule `COC[C@@H]1CCCN1C(=O)Nc1cccc(Nc2ncc(C(N)=O)c(N[C@H](C)c3ccccc3)n2)c1` [Example 138, 2-(3-((S)-2-(methoxymethyl)pyrrolidine-1-carboxamido)phenylamino)-4-((R)-1-phenylethylamino)pyrimidine-5-carboxamide], the IC50 against TYK2 fell in the range of 10 to 100 nM; on JAK3, 1 to 10 nM; on JAK1, 100 to 1000 nM; on JAK2, 10 to 100 nM.

With `CC(=O)Nc1cccc(Nc2ncc(C(N)=O)c(Nc3cccc(-c4ncccn4)c3)n2)c1` [Example 199], the IC50 at TYK2, on JAK3, at JAK1 and at JAK2 was 10 to 100 nM each time.

Take `CN(C(=O)N1CCCC1)c1cc(Nc2ncc(C(N)=O)c(NCc3ccccc3)n2)ccc1Cl` [Example 241, 4-(benzylamino)-2-(4-chloro-3-(N-methylpyrrolidine-1-carboxamido)phenylamino)pyrimidine-5-carboxamide]: the IC50 was in the range of 100 to 1000 nM on TYK2, 10 to 100 nM against JAK3, 100 to 1000 nM at JAK1 and 100 to 1000 nM against JAK2.

For `CC(=O)Nc1cccc(Nc2ncc(C(=O)O)c(NCC3CCNC3)n2)c1` (centres unmarked) [Example 226, 2-(3-acetamidophenylamino)-4-(pyrrolidin-3-ylmethylamino)pyrimidine-5-carboxylic acid], the IC50 lay within 100 to 1000 nM on TYK2, 10 to 100 nM against JAK3, 10 to 100 nM at JAK1 and 100 to 1000 nM against JAK2.

On to `CC(=O)Nc1cc(Nc2ncc(C(N)=O)c(NCc3ccccc3)n2)ccc1Cl` [Example 2, 2-(3-acetamido-4-chlorophenylamino)-4-(benzylamino)pyrimidine-5-carboxamide], for which the concentration for half-maximal inhibition (IC50) lay in the range of 10 to 100 nM at TYK2, 1 to 10 nM against JAK3, 10 to 100 nM on JAK1 and 10 to 100 nM against JAK2.

For the molecule `CC(=O)Nc1cccc(Nc2ncc(C(N)=O)c(NCc3cccc(F)c3F)n2)c1` [Example 95, 2-(3-acetamidophenylamino)-4-(2,3-difluorobenzylamino)pyrimidine-5-carboxamide], the IC50 on TYK2 was in the range of 10 to 100 nM; at JAK3, 1 to 10 nM; on JAK1, 10 to 100 nM; against JAK2 it was 10 to 100 nM.

Consider `CC(=O)Nc1cccc(Nc2ncc(C(N)=O)c(NCc3ccncc3)n2)c1` [Example 189, 2-(3-acetamidophenylamino)-4-(pyridin-4-ylmethylamino)pyrimidine-5-carboxamide], for which the IC50 against TYK2 was 10 to 100 nM; against JAK3, 10 to 100 nM; at JAK1, 100 to 1000 nM; against JAK2 it was 100 to 1000 nM.

In the case of `COc1ccc(Nc2ncc(C(N)=O)c(NCc3cccc(F)c3)n2)cc1N(C)C(=O)N1CCCC1` [Example 240, 4-(3-fluorobenzylamino)-2-(4-methoxy-3-(N-methylpyrrolidine-1-carboxamido)phenylamino)pyrimidine-5-carboxamide], the IC50 at TYK2 is above 1000 nM; on JAK3, 100 to 1000 nM; at JAK1, above 1000 nM; on JAK2, above 1000 nM.

Consider `CC(=O)Nc1cccc(Nc2cc(NCC3CC3)c(C(N)=O)cn2)c1` [Example 329, 6-(3-acetamidophenylamino)-4-(cyclopropylmethylamino)nicotinamide], for which the concentration for half-maximal inhibition (IC50) at TYK2 is 100 to 1000 nM; against JAK3, 100 to 1000 nM; on JAK1, above 1000 nM; against JAK2, 100 to 1000 nM.

`COCC(=O)Nc1cccc(Nc2ncc(C(N)=O)c(NCC3CC3)n2)c1` [Example 124, 4-(cyclopropylmethylamino)-2-(3-(2-methoxyacetamido)phenylamino)pyrimidine-5-carboxamide]: the IC50 on TYK2 was 1 to 10 nM; on JAK3, 1 to 10 nM; at JAK1, 10 to 100 nM; against JAK2 it was 10 to 100 nM.

As to `NC(=O)c1cnc(Nc2cccc(N(C(=O)C3CC3)C3CC3)c2)nc1NCc1ccccc1` [Example 151, 4-(benzylamino)-2-(3-(N-cyclopropylcyclopropanecarboxamido)phenylamino)pyrimidine-5-carboxamide], the half-maximal inhibitory concentration (IC50) against TYK2, against JAK3, at JAK1 and on JAK2 was above 1000 nM each time.

Take `C[C@@H](Nc1cc(Nc2cccc(NC(=O)N3CCCC3)c2)ncc1C(N)=O)c1ccccc1` [Example 325, (R)-4-(1-phenylethylamino)-6-(3-(pyrrolidine-1-carboxamido)phenylamino)nicotinamide]: the IC50 was in the range of 100 to 1000 nM against TYK2, 1 to 10 nM on JAK3, 100 to 1000 nM on JAK1 and 100 to 1000 nM against JAK2.

In the case of `CNC(=O)Nc1cc(Nc2ncc(C(N)=O)c(NCC3CC3)n2)ccc1Cl` [Example 178, 2-(4-chloro-3-(3-methylureido)phenylamino)-4-(cyclopropylmethylamino)pyrimidine-5-carboxamide], the IC50 at TYK2 was 10 to 100 nM; at JAK3, 10 to 100 nM; at JAK1 it was 100 to 1000 nM; on JAK2, 10 to 100 nM.

On to `CC[C@H](C)Nc1nc(Nc2ccc(Cl)c(NC(=O)NC)c2)ncc1C(N)=O` [Example 175, (S)-4-(sec-butylamino)-2-(4-chloro-3-(3-methylureido)phenylamino)pyrimidine-5-carboxamide], for which the IC50 lay in the range of 10 to 100 nM at TYK2, 10 to 100 nM on JAK3, 100 to 1000 nM on JAK1 and 100 to 1000 nM against JAK2.

As to `CC(=O)Nc1cccc(Nc2cc(NCCc3ccccc3)c(C(N)=O)cn2)c1` [Example 338, 6-(3-acetamidophenylamino)-4-(phenethylamino)nicotinamide], the IC50 on TYK2 was 100 to 1000 nM; at JAK3, 100 to 1000 nM; at JAK1 it was above 1000 nM; against JAK2, above 1000 nM.

For the molecule `CC(=O)Nc1cccc(Nc2ncc(C(N)=O)c(NCC3CCC3)n2)c1` [Example 262, 2-(3-acetamidophenylamino)-4-(cyclobutylmethylamino)pyrimidine-5-carboxamide], the IC50 against TYK2 lay within 1 to 10 nM; against JAK3, 1 to 10 nM; on JAK1, 10 to 100 nM; at JAK2, 10 to 100 nM.
